Assay results: article PMC12203697, “Bioactive constituents from the edible seaweed Halymenia hawaiiana (Rhodophyta)” (Pharmaceutical Biology, 2025)
Converted amounts (≈) assume the structure as drawn. Where two headings read alike, the source gives them in different places. Blank lines part the entries; values can stand above or below the compound they belong to.

Columns and labels:
[1] = test system: MRSA HBP10; assay: Antibacterial MIC, broth microdilution with resazurin; type: cell-based, Staphylococcus aureus; details: MRSA HBP10, Gram-positive
Source text: (§1) Methicillin-resistant Staphylococcus aureus (MRSA), methicillin-susceptible S. aureus (MSSA), and Gram-negative clinical isolates of bacteria [Escherichia coli (9637) and Serratia marcescens ATCC 13880] were used for this study. […] MSSA HBP10, MSSA LUU7, MSSA R113, S. aureus ONE9, and MSSA POB2 were isolated in Hawaiʻi (Gerken et al. [2021]). Mueller Hinton Broth (MHB, GTIN:00382902979630, Becton, Dickinson and Company, Franklin Lakes, NJ, USA) and Mueller Hinton Agar (MHA, GTIN:00382902252504, Becton, Dickinson and Company, Franklin Lakes, NJ, USA,) were used for bacterial inoculation. MRSA was a pathogen strain causing hospital-acquired infections in 1982. This strain easily acquires resistance to antibiotics, such as vancomycin. MSSA strains isolated from the Island of Hawaiʻi included: Honolʻii Beach Park (HBP10) carry the genes erm(C), aph(3′)-III, and mecA, which provide resistance to macrolide, aminoglycoside, and beta-lactam antibiotics, respectively; Wailuku River (LUU7) which contains the blaZ gene (beta-lactam resistance) (Gerken et al. [2021]). Richardson’s Beach Park (R113) and Onekahakaha (ONE9) which is known for its virulence factors (hlgA, hlgB, hlgC, lukD, and lukE).
(§2) The minimum inhibitory concentrations (MICs) were determined using a two-fold serial dilution method with MHB following the recommendations of the Clinical and Laboratory Standards Institute (CLSI [2012]; Elshikh et al. [2016]). In brief, serial two-fold dilutions of the samples in DMSO were mixed with MHB in a 96-well microplate. Then, 50 µL of bacteria suspension was added to each well, resulting in a final concentration of 1 × 10^4 colony-forming units/well. The plates were incubated at 35–37 °C for 18–24 hr. After incubation, 10 µL of 0.18% resazurin (Cat. No. R7017, Sigma-Aldrich, USA) was added to each well (Elshikh et al. [2016]). The MIC was assessed within 2–3 hr after the addition of resazurin. All antimicrobial assays were performed in triplicate, using vancomycin (Cat. No. SBR00001, Sigma-Aldrich, USA) and gentamicin (Cat. No. G1397, Sigma-Aldrich, USA) as standard controls.

[2] = test system: S. aureus NEWMAN; assay: as above; type: cell-based, Staphylococcus aureus; details: S. aureus NEWMAN, Gram-positive
Source text: as §1, §2

[3] = test system: MRSA POB2; assay: as above; type: cell-based, Staphylococcus aureus; details: Staphylococcus aureus; MRSA POB2, Gram-positive; read-out: MIC
Source text: as §1, §2

[4] = test system: ROS/RNS generation in RAW 264.7 cells; assay: Intracellular ROS/RNS levels in LPS-induced RAW 264.7 cells (H2DCF-DA); type: cell-based; details: Mus musculus
Experimental: To measure the formation of intracellular ROS and RNS, we utilized the fluorogenic dye 2′,7′-dichlorodihydrofluorescein diacetate (Cat. No. 4091-99-0, H2DCF-DA, Abcam, Boston, MA, USA). This dye detects hydrogen peroxide, peroxyl radicals, and peroxynitrite anions (Kwon et al. [2019]). In brief, RAW 264.7 cells were seeded into a black 96-well plate (Cat. No. 165305, Thermo Fisher, USA) at 4 × 10^4 cells per well and incubated for 24 hr at 37 °C in 5% CO2. Afterward, the cells were treated with or without a sample for 4 hr before adding 1 μg/mL LPS (Cat. No. 00-4976-93, Thermo Fisher, USA) for 20 hr. Once this incubation was complete, the cells were washed twice with fetal bovine serum (FBS)-free media (Cat. No. A5256701, Thermo Fisher, USA) and stained with 10 μM H2DCF-DA (Cat. No. D399, Thermo Fisher, USA) in FBS-free media for 30 min at 37 °C, protected from light. Next, the dye-containing media was discarded, and the cells were washed twice with fresh serum-free media. The relative fluorescent intensity of the cells was measured using a fluorescence plate reader (Synergy H1, BioTeK, Winooski, VT, USA) with excitation/emission at 485 nm/535 nm. Curcumin (Cat. No. C1386-5G, Millipore Sigma, Burlington, MA, USA), a natural phenolic compound with antioxidant activity, was used as positive control. All samples were tested in triplicates. A sulforhodamine B (SRB) assay was conducted to assess cellular viability under a similar experimental setup. The final percentage of inhibition of ROS/RNS generation was calibrated using the % of cell viability.

[5] = test system: RAW 264.7 cells; assay: SRB cellular viability in RAW 264.7 cells; type: cell-based, mouse; details: under the NO and ROS/RNS assay conditions
Experimental: The nitrite concentration in the culture medium was measured to indicate nitric oxide (NO) production as previously described (Min et al. [2009]). The murine macrophage RAW 264.7 cell line was obtained from ATCC, Manassas, VA, USA, and maintained in Dulbecco’s modified Eagle’s medium supplemented with 10% heat-inactivated FBS (Cat. No. A5670801, Gibco BRL Co, Grand Island, NY, USA), penicillin G (100 units/mL) (Cat. No. P7794, Sigma-Aldrich, USA), streptomycin (100 µg/mL) (Cat. No. S9137, Sigma-Aldrich, USA), and L-glutamine (2 mM) (Cat. No. 25030081, Gibco BRL Co, Grand Island, NY, USA). In brief, RAW 264.7 cells were seeded at a density of 4 × 10^4 cells/well in phenol red-free media (Cat. No. 11835030, Gibco, USA) in a 96-well plate, and incubated in a humidified incubator with 5% CO2 at 37 °C for 24 hr. Following this, the cells were treated with increasing concentrations of samples ranging from 10–50 μg/mL for 4 hr, after which the cells were treated with 1 μg/mL LPS for 20 h. L-N-Monomethyl Arginine citrate (L-NMMA) (Cat. No. NC0190932, Cayman Chemical, Michigan, USA), a non-selective inhibitor of NOS, was used as positive control. The concentration of nitric oxide production was assessed using the Griess reagent, which consists of a 1:1 (v/v) mixture of 1% sulfanilamide (Cat No. A13001, Alfa Aesar, Massachusetts, USA) in H3PO4 and N-(1-naphthyl)ethylenediamine dihydrochloride (Cat. No. 102397, MP Biomedicals, USA). Absorbance was recorded with a microplate reader (SynergyMx, BioTeK, Winooski, VT, USA) at 540 nm. A standard curve was created using sodium nitrite (1–100 μM) (Cat. No. 44227, Alfa Aesar, Massachusetts, USA). […]
To measure the formation of intracellular ROS and RNS, we utilized the fluorogenic dye 2′,7′-dichlorodihydrofluorescein diacetate (Cat. No. 4091-99-0, H2DCF-DA, Abcam, Boston, MA, USA). […] The relative fluorescent intensity of the cells was measured using a fluorescence plate reader (Synergy H1, BioTeK, Winooski, VT, USA) with excitation/emission at 485 nm/535 nm. […]

[6] = Staphylococcus aureus, read-out: MIC
[7] = RAW264.7, read-out: IC50, inhibition of LPS-induced ROS/RNS generation

MIC [1, 6]: 128 µg/mL (≈ 563 µM)
MIC [2, 6]: 128 µg/mL (≈ 563 µM)
MIC [3]: 128 µg/mL (≈ 563 µM)
SMILES: Nc1ccn([C@H]2C[C@H](O)[C@@H](CO)O2)c(=O)n1 [Compound 1, deoxycytidine]

SMILES: CC(C)CCC[C@@H](C)[C@H]1CC[C@H]2[C@@H]3CC=C4C[C@@H](O)CC[C@]4(C)[C@H]3CC[C@]12C [Compound 9, cholesterol]
MIC [1, 6]: 128 µg/mL (≈ 331 µM)
MIC [2, 6]: 64 µg/mL (≈ 166 µM)
MIC [3]: 128 µg/mL (≈ 331 µM)
IC50 ([4]; RAW264.7, RAW 264.7 cells, H2DCF-DA dye, LPS 1 μg/mL, read-out: IC50, inhibition of LPS-induced ROS/RNS generation): 55 ± 4.1 µM
cytotoxicity in RAW 264.7 cells (in words) [5]: without inducing cytotoxicity

SMILES: CC(C)CCC[C@@H](C)[C@H]1CCC2[C@@]34C=C[C@]5(C[C@@H](O)CC[C@]5(C)C3CC[C@@]21C)OO4 (stereo partly shown) [Compound 10, 7-dehydrochoresterol peroxide]
MIC [1]: 32 µg/mL (≈ 76.8 µM)
MIC [1, 6]: 32 µg/mL (≈ 76.8 µM)
MIC [2]: 8 µg/mL (≈ 19.2 µM)
MIC [2, 6]: 8 µg/mL (≈ 19.2 µM)
MIC [3]: 128 µg/mL (≈ 307 µM)
IC50 [4, 7]: 65 ± 4.8 µM
cytotoxicity in RAW 264.7 cells (in words) [5]: without inducing cytotoxicity

SMILES: CC(C)CCC[C@@H](C)[C@H]1CCC2[C@]1(C)CC=C1[C@]23C=C[C@]2(C[C@@H](O)CC[C@]12C)OO3 (stereo partly drawn) [Compound 11, (3β-5α-8α)5,8-epidioxycholesta-6,9(1)-diene-3-ol]
MIC [1]: 64 µg/mL (≈ 154 µM)
MIC [1, 6]: 64 µg/mL (≈ 154 µM)
MIC [2]: 8 µg/mL (≈ 19.3 µM)
MIC [2, 6]: 8 µg/mL (≈ 19.3 µM)
MIC [3]: 128 µg/mL (≈ 309 µM)
IC50 [4, 7]: 73.7 ± 6.2 µM
cytotoxicity in RAW 264.7 cells (in words) [5]: without inducing cytotoxicity
